Experimental data from patent publication US10077464B2, “Micro-organism detection medium comprising at least one alkyl(thio)glycoside” (Biomérieux, priority 2012, dated 2018).

Tests used:
[1] = test system: Microorganisms of the genus Salmonella; assay: Detection of salmonellae, all strains of Example 1; format: cell-based; details: alkylglycoside in place of Tween 20, Example 1
Description: A stock solution of the enzyme substrate 5-bromo-6-chloro-3-indoxyl caprylate (magenta-C8) is made in a DMSO-type solvent. A volume of this stock solution which makes it possible to obtain a final substrate concentration of 360 mg/L is then added into flasks respectively containing Tween 20 (final concentration 6 g/L), n-octyl-β-D-glucopyranoside (OG) to final concentrations of 0.7, 2 and 6 g/L, and n-dodecyl-β-D-maltoside (DM) to the same concentrations. The different solutions are agitated and the volumes are introduced into supercooled agar media (chromID® Salmonella media).
Microorganisms of the genus Salmonella from the Applicant's collection were seeded on each of the aforementioned media in accordance with the three-dial technique from bacterial suspensions calibrated to 0.5 McF. The strains were selected for their low to average expression of esterase activity, giving low to average violet coloration intensities on the chromID® Salmonella medium marketed by bioMérieux (under the references 43621 and 43629).
The dishes were incubated for 24 h at 37° C. Then the colonies which formed were examined visually after 24 h of incubation. The coloration intensities were recorded.

[2] = test system: P. aeruginosa and A. baumannii; assay: Detection of P. aeruginosa and A. baumannii, all strains of Example 2; format: cell-based
Description: Two stock solutions at 25 g/L of ALDOL™ 470-nonanoate (ALDOL 470-C9, developed by Biosynth AG, Rietlisstrasse 4,9422 Staad, Switzerland) and of ALDOL™ 495-nonanoate (ALDOL 495-C9, also developed by Biosynth AG, Rietlisstrasse 4,9422 Staad, Switzerland) are made in a DMSO-type organic solvent. Then a volume corresponding to a final concentration of enzyme substrates of 200 mg/L is added into flasks containing respectively: Tween 20 (final concentration in the medium of 6 g/L), and DM (final concentrations of 0.7, 2 and 6 g/L). The different flasks are vigorously agitated, then all of the contents are added into the supercooled agar media: TSA (trypticase soy agar) base.
Bacteria from the Applicant's collection were seeded on each of the aforementioned media in accordance with the three-dial technique from bacterial suspensions calibrated to 0.5 McF. The dishes were incubated for 24 h at 37° C. and the colonies formed were analysed visually. Thus, the colorations and the coloration intensities were recorded.

CCCCCCCCCCCCO[C@@H]1O[C@H](CO)[C@@H](O[C@H]2O[C@H](CO)[C@@H](O)[C@H](O)[C@H]2O)[C@H](O)[C@H]1O [DM, n-dodecyl-β-D-maltoside]
Esterase activity detection sensitivity in Salmonella [1]: improve the esterase activity detection sensitivity in Salmonella | Detection of the strains tested ([2]; replacement of the Tween 20 at 6 g/L by DM at the same concentration, whatever the enzyme substrate): detect all of the strains tested | Detection of the esterase activity of the microorganisms ([2]; substitution of Tween 20 by DM, Example 2): improves the detection of the esterase activity of the microorganisms

CCCCCCCCO[C@@H]1O[C@H](CO)[C@@H](O)[C@H](O)[C@H]1O [OG, n-octyl-β-D-glucopyranoside]
Esterase activity detection sensitivity in Salmonella [1]: improve the esterase activity detection sensitivity in Salmonella
